Laboratory results as given in US11312724B2 (ASCENTAGE PHARMA (SUZHOU) CO., LTD., priority 2021, dated 2022).

Key:
NCI-H358 cell = test: Cell proliferation assay (Celltiter-Glo), NCI-H358; assay type: cell-based; conditions: Homo sapiens, NCI-H358, 72 h, 3 days
Protocol: (§1) Cell Proliferation Assay:
(§2) NCI-H358 cell and MIA PaCa-2 cell was cultured in RPMI-1640 supplemented with 10% FBS in humidified incubator at 37° C., 5% CO2. To asses the effect of Compounds of the Disclosure on cell proliferation, exponentially growing cells (5000 cells/well) were plated onto 96-well plates. After cell seeding, a representative Compounds of the Disclosure were added to the cell media (in concentrations ranging from 0 to 10 μM, 3/dilution series). After 3 days, 30 μL Celltiter-Glo reagent was added, and the luminescent signal was determined according to supplier's instruction. The dose response curves and IC50 values were generated using Prism.

MIA PaCa-2 cell = test: Cell proliferation assay (Celltiter-Glo), MIA PaCa-2; assay type: cell-based; conditions: Homo sapiens, MIA PaCa-2, 72 h, 3 days
Protocol: as §1, §2

Row | SMILES | IC50 (NCI-H358 cell) [nM] | IC50 (MIA PaCa-2 cell) [nM]
1 | C/C=C/C(=O)N1CCN(c2nc(OC[C@@H]3CCCN3C)nc3c2CCC2(CCCc4ccccc42)C3)C[C@@H]1CC#N (stereo partly drawn) [Cpd. No. 14, 2-((2S)-1-((E)-but-2-enoyl)-4-(2′-(((S)-1-methylpyrrolidin-2-yl)methoxy)-3,4,5′,8′-tetrahydro-2H,6′H-spiro[naphthalene-1,7′-quinazolin]-4′-yl)piperazin-2-yl)acetonitrile] | 1670 | 1670
2 | C=CC(=O)N1CCN(c2nc(OCC3CCCN3C)nc3c2CC[C@]2(CCc4ccccc42)C3)C[C@@H]1CC#N (single isomer, unassigned) [Cpd. No. 4] | 13 | 5
3 | C=CC(=O)N1CCN(c2nc(OCC3CCC4(CC4)N3C)nc3c2CC[C@@]2(CCc4c(Cl)cccc42)C3)C[C@@H]1CC#N (stereo partly drawn) [Cpd. No. 46, 2-((2S)-1-acryloyl-4-((1R)-4-chloro-2′-((4-methyl-4-azaspiro[2.4]heptan-5-yl)methoxy)-2,3,5′,8′-tetrahydro-6′H-spiro[indene-1,7′-quinazolin]-4′-yl)piperazin-2-yl)acetonitrile] | 25 | 15
4 | C=CC(=O)N1CCN(c2nc(OC[C@@H]3CCCN3C)nc3c2CC[C@@]2(CCCc4ccccc42)C3)C[C@@H]1CC#N (single isomer, unassigned) [Cpd. No. 2] | 440 | 76
5 | C=C(COC)C(=O)N1CCN(c2nc(OC[C@@H]3CCCN3C)nc3c2CCC2(CCc4ccccc42)C3)C[C@@H]1CC#N (stereo partly drawn) [Cpd. No. 42, 2-((2S)-1-(2-(methoxymethyl)acryloyl)-4-(2′-(((S)-1-methylpyrrolidin-2-yl)methoxy)-2,3,5′,8′-tetrahydro-6′H-spiro[indene-1,7′-quinazolin]-4′-yl)piperazin-2-yl)acetonitrile] | 10400 | 5800
6 | C=CC(=O)N1CCN(c2nc(OC[C@@H]3CCCN3C)nc3c2CCC2(C3)c3cccc(F)c3C3CC32)C[C@@H]1CC#N (stereo partly drawn) [Cpd. No. 39, 2-((2S)-1-acryloyl-4-(2-fluoro-2′-(((S)-1-methylpyrrolidin-2-yl)methoxy)-1a,5′,6a,8′-tetrahydro-1H,6′H-spiro[cyclopropa[a]indene-6,7′-quinazolin]-4′-yl)piperazin-2-yl)acetonitrile] | 670 | 370
7 | C=CC(=O)N1CCN(c2nc(OC[C@@H]3CCCN3C)nc3c2CCC2(CCCc4ccccc42)C3)C[C@H]1CC#N (stereo partly drawn) [Cpd. No. 3, 2-((2R)-1-acryloyl-4-(2′-(((S)-1-methylpyrrolidin-2-yl)methoxy)-3,4,5′,8′-tetrahydro-2H,6′H-spiro[naphthalene-1,7′-quinazolin]-4′-yl)piperazin-2-yl)acetonitrile] | 290 | 140
8 | C=CC(=O)N1CCN(c2nc(OC[C@@H]3CCCN3C)nc3c2CCC2(C3)OCCc3ccccc32)C[C@@H]1CC#N (stereo partly drawn) [Cpd. No. 6, 2-((2S)-1-acryloyl-4-(2′-(((S)-1-methylpyrrolidin-2-yl)methoxy)-5′,8′-dihydro-6′H-spiro[isochromane-1,7′-quinazolin]-4′-yl)piperazin-2-yl)acetonitrile] | 210 | 170
9 | C=C(F)C(=O)N1CCN(c2nc(OCC3CCC4CCCN43)nc3c2CC[C@@]2(CCc4c(Cl)cccc42)C3)C[C@@H]1CC#N (stereo partly drawn) [Cpd. No. 52, 2-((2S)-4-((1R)-4-chloro-2′-((hexahydro-1H-pyrrolizin-3-yl)methoxy)-2,3,5′,8′-tetrahydro-6′H-spiro[indene-1,7′-quinazolin]-4′-yl)-1-(2-fluoroacryloyl)piperazin-2-yl)acetonitrile] | 260 | 340
10 | C=CC(=O)N1CCN(c2nc(OCC34CCCN3CCC4)nc3c2CC[C@@]2(CCc4c(Cl)cccc42)C3)C[C@@H]1CC#N [Cpd. No. 44, 2-((S)-1-acryloyl-4-((R)-4-chloro-2′-((tetrahydro-1H-pyrrolizin-7a(5H)-yl)methoxy)-2,3,5′,8′-tetrahydro-6′H-spiro[indene-1,7′-quinazolin]-4′-yl)piperazin-2-yl)acetonitrile] | 4.6 | 1.5
11 | C=CC(=O)N1CCN(c2nc(OCCCN3CCOCC3)nc3c2CCC2(CCCc4ccccc42)C3)C[C@@H]1CC#N (stereo partly drawn) [Cpd. No. 19, 2-((2S)-1-acryloyl-4-(2′-(3-morpholinopropoxy)-3,4,5′,8′-tetrahydro-2H,6′H-spiro[naphthalene-1,7′-quinazolin]-4′-yl)piperazin-2-yl)acetonitrile] | 130 | 110
12 | C=CC(=O)N1CCN(c2nc(OC[C@@H]3CCCN3C)nc3c2CCC2(CCOc4ccccc42)C3)C[C@@H]1CC#N (stereo partly drawn) [Cpd. No. 21, 2-((2S)-1-acryloyl-4-(2′-(((S)-1-methylpyrrolidin-2-yl)methoxy)-5′,8′-dihydro-6′H-spiro[chromane-4,7′-quinazolin]-4′-yl)piperazin-2-yl)acetonitrile] | 470 | 440
13 | CN1CCC[C@H]1COc1nc2c(c(N3CCN(C(=O)/C=C/CN4CC(F)C4)[C@@H](CC#N)C3)n1)CCC1(CCc3ccccc31)C2 (stereo partly drawn) [Cpd. No. 41, 2-((2S)-1-((E)-4-(3-fluoroazetidin-1-yl)but-2-enoyl)-4-(2′-(((S)-1-methylpyrrolidin-2-yl)methoxy)-2,3,5′,8′-tetrahydro-6′H-spiro[indene-1,7′-quinazolin]-4′-yl)piperazin-2-yl)acetonitrile] | 320 | 91
14 | C=C(F)C(=O)N1CCN(c2nc(OC[C@@H]3CCCN3C)nc3c2CC[C@@]2(CCc4c(Cl)cccc42)C3)C[C@@H]1CC#N [Cpd. No. 54, 2-((S)-4-((R)-4-chloro-2′-(((S)-1-methylpyrrolidin-2-yl)methoxy)-2,3,5′,8′-tetrahydro-6′H-spiro[indene-1,7′-quinazolin]-4′-yl)-1-(2-fluoroacryloyl)piperazin-2-yl)acetonitrile] | 28 | 16
15 | C=CC(=O)N1CCN(c2nc(OC[C@@H]3CCCN3C)nc3c2CCC2(CCc4ccccc42)C3)[C@@H](C)C1 (stereo partly drawn) [Cpd. No. 10, 1-((3S)-3-methyl-4-(2′-(((S)-1-methylpyrrolidin-2-yl)methoxy)-2,3,5′,8′-tetrahydro-6′H-spiro[indene-1,7′-quinazolin]-4′-yl)piperazin-1-yl)prop-2-en-1-one] | 2230 | 1180
16 | C=CC(=O)N1CCN(c2nc(OC[C@@H]3CCCN3C)nc3c2CCC2(COC(C)c4c(F)cccc42)C3)C[C@@H]1CC#N (stereo partly drawn) [Cpd. No. 35, 2-((2S)-1-acryloyl-4-(8-fluoro-1-methyl-2′-(((S)-1-methylpyrrolidin-2-yl)methoxy)-5′,8′-dihydro-6′H-spiro[isochromane-4,7′-quinazolin]-4′-yl)piperazin-2-yl)acetonitrile] | 43 | 20
17 | C=CC(=O)N1CCN(c2nc(OC[C@@H]3CCCN3C)nc3c2CCC2(C3)CC(C)Oc3ccccc32)C[C@@H]1CC#N (stereo partly drawn) [Cpd. No. 25, 2-((2S)-1-acryloyl-4-(2-methyl-2′-(((S)-1-methylpyrrolidin-2-yl)methoxy)-5′,8′-dihydro-6′H-spiro[chromane-4,7′-quinazolin]-4′-yl)piperazin-2-yl)acetonitrile] | 1840 | 1280
18 | C=C(F)C(=O)N1CCN(c2nc(OC[C@@H]3CCCN3C)nc3c2CCC2(COC(C)c4c(F)cccc42)C3)C[C@@H]1CC#N (stereo partly drawn) [Cpd. No. 36, 2-((2S)-4-(8-fluoro-1-methyl-2′-(((S)-1-methylpyrrolidin-2-yl)methoxy)-5′,8′-dihydro-6′H-spiro[isochromane-4,7′-quinazolin]-4′-yl)-1-(2-fluoroacryloyl)piperazin-2-yl)acetonitrile] | 260 | 160
19 | COC/C=C/C(=O)N1CCN(c2nc(OC[C@@H]3CCCN3C)nc3c2CCC2(CCc4ccccc42)C3)C[C@@H]1CC#N (stereo partly drawn) [Cpd. No. 40, 2-((2S)-1-((E)-4-methoxybut-2-enoyl)-4-(2′-(((S)-1-methylpyrrolidin-2-yl)methoxy)-2,3,5′,8′-tetrahydro-6′H-spiro[indene-1,7′-quinazolin]-4′-yl)piperazin-2-yl)acetonitrile] | 560 | 440
20 | CN(C)C/C=C/C(=O)N1CCN(c2nc(OC[C@@H]3CCCN3C)nc3c2CCC2(CCCc4ccccc42)C3)C[C@@H]1CC#N (stereo partly drawn) [Cpd. No. 15, 2-((2S)-1-((E)-4-(dimethylamino)but-2-enoyl)-4-(2′-(((S)-1-methylpyrrolidin-2-yl)methoxy)-3,4,5′,8′-tetrahydro-2H,6′H-spiro[naphthalene-1,7′-quinazolin]-4′-yl)piperazin-2-yl)acetonitrile] | 510 | 290
21 | C=CC(=O)N1CCN(c2nc(OC[C@@H]3CCCN3C)nc3c2CCC2(CCCc4ccccc42)C3)[C@@H](C)C1 (stereo partly drawn) [Cpd. No. 8, 1-((3S)-3-methyl-4-(2′-(((S)-1-methylpyrrolidin-2-yl)methoxy)-3,4,5′,8′-tetrahydro-2H,6′H-spiro[naphthalene-1,7′-quinazolin]-4′-yl)piperazin-1-yl)prop-2-en-1-one] | 940 | 500
22 | C=CC(=O)N1CCN(c2nc(OC[C@@H]3CCCN3C)nc3c2CCC2(C3)CN(C)Cc3ccccc32)C[C@@H]1CC#N (stereo partly drawn) [Cpd. No. 30, 2-((2S)-1-acryloyl-4-(2-methyl-2′-(((S)-1-methylpyrrolidin-2-yl)methoxy)-2,3,5′,8′-tetrahydro-1H,6′H-spiro[isoquinoline-4,7′-quinazolin]-4′-yl)piperazin-2-yl)acetonitrile] | 2060 | 4780
23 | C=CC(=O)N1CCN(c2nc(OC[C@@H]3CCCN3C)nc3c2CCC2(COCc4ccccc42)C3)C[C@@H]1CC#N (stereo partly drawn) [Cpd. No. 24, 2-((2S)-1-acryloyl-4-(2′-(((S)-1-methylpyrrolidin-2-yl)methoxy)-5′,8′-dihydro-6′H-spiro[isochromane-4,7′-quinazolin]-4′-yl)piperazin-2-yl)acetonitrile] | 11 | 6
